Patent EP0497921B1, “METHOD FOR INHIBITING ENZYMATIC SYNTHESIS OF NUCLEIC ACIDS USING ISOPSORALENS” (ISAACS, Stephen T., priority 1989, dated 1991)

Key:
Test in all cases: Primer extension on site-specific 71-mer monoadduct template
Format in all cases: biochemical
Conditions in all cases: 37°C for 0, 5 or 15 minutes, PAGE, autoradiography
E. Coli DNA Polymerase = tested on: E. Coli DNA Polymerase
Source text: (§1) The sequences that are presented in Figure 26 describe several oligonucleotides that are used in the synthesis of either a normal 71-mer or the identical 71-mer containing a site-specifically placed psoralen or isopsoralen monoadduct. The 71-mer is a sub-sequence of the Human Immunodeficiency Virus (HIV) sequence. (An HIV DNA system is described in a co-pending application, Serial No. 225,725.) SK-39 is a primer oligonucleotide that is complementary to the 3' end of the 71-mers. This primer oligonucleotide can be extended on the 71-mer template to make a complementary strand of the 71-mer.
(§2) Preparation of 71-mers which contain site-specific monoadducts involves 1) preparation of different 15-mer monoadducts from the same unmodified 15-mer (HRI-42), and 2) ligation of the different 15-mer monoadducts to the same 56-mer "extender oligonucleotide" (HRI 102) using a 25-mer oligonucleotide (HRI-45) as a splint. The arrows in Figure 27 indicate the direction of synthesis, while the monoadduct is indicated by a short line that is perpendicular to the oligomer. While each of the 71-mer monoadducts contains the adduct at a base position that is greater than 56 bases from the 5' end, the precise position of the monoadduct is not meant to be indicated.
(§3) To prepare the 15-mer adducts, the 15-mer was incubated with a complementary 10-mer along with psoralen or isopsoralen under hybridization conditions. The mixture was then irradiated to provide the monoadducted 15-mer. While the invention is not dependent on knowing the precise mechanism of coupling, it has generally been believed that the 10-mer directs the isopsoralen to a single TpA site within the double-stranded helix formed by the 10-mer/15-mer hybrid. After isolation of an HPLC peak believed to contain the 15-mer with a single psoralen or isopsoralen monoadduct, these 15-mer monoadducts were ligated to a 56-mer extender in order to provide the monoadducted 71-mers for use as polymerase templates. The ligation reaction therefore utilized three oligonucleotides: the particular psoralen or isopsoralen monoadducted 15-mer, the 56-mer extender, and the 25-mer splint. The ligation complex was hybridized together then ligated. The ligated product was then isolated as a single band by denaturing PAGE.
(§4) To provide highly purified 71-mers which contain a single monoadduct, it was necessary to provide highly purified 15-mer monoadduct prior to the ligation step. This was accomplished by repurification of the HPLC purified monoadducted 15-mers by PAGE. In this way, essentially all the non-monoadducted 15-mer was removed prior to ligation. Separation of 15-mer monoadduct from unmodified 15-mer was readily accomplished by PAGE (while the same technique is not effective for separation of the corresponding unmodified 71-mer and monoadducted 71-mer sequences). In this manner, exceedingly pure monoadducted 71-mers were produced for the primer extension reactions; monoadducted 71-mers (as well as unmodified 71-mers) are used in template-dependent enzymatic extension experiments in examples 43-47 below.
(§5) In this experiment, monoadducted 71-mers (as well as unmodified 71-mers) were used in template-dependent enzymatic extension. AMIP, AMDMIP, and MIP 71-mer monoadducts were made as in Example 17. […] Note that the 3' end of the 71-mer (HRI 55) is complementary to the primer (SK-39) (see also Figure 26). Each of the extension experiments were run at 37°C for 0, 5 or 15 minutes. Each of the reactions were initiated by providing the templates and deoxyribonucleoside 5'-triphosphates (dATP, dGTP, dCTP, and dTTP are collective abbreviated as dNTPs), and by adding the particular polymerase last to start the reaction. For detection, the primer extension reaction utilized 5' ^32P-labelled primer. The reactions were stopped by adding EDTA. Analysis was by denaturing PAGE followed by autoradiography. […]

Klenow Polmerase = tested on: Klenow Polmerase
Source text: as §1, §2, §3, §4, §5

Reverse Transcriptase = tested on: Reverse Transcriptase
Source text: as §1, §2, §3, §4, §5

T4 Polymerase = tested on: T4 Polymerase
Source text: as §1, §2, §3, §4, §5

Chain of E. Coli DNA Polymerase (P00582 whole entry): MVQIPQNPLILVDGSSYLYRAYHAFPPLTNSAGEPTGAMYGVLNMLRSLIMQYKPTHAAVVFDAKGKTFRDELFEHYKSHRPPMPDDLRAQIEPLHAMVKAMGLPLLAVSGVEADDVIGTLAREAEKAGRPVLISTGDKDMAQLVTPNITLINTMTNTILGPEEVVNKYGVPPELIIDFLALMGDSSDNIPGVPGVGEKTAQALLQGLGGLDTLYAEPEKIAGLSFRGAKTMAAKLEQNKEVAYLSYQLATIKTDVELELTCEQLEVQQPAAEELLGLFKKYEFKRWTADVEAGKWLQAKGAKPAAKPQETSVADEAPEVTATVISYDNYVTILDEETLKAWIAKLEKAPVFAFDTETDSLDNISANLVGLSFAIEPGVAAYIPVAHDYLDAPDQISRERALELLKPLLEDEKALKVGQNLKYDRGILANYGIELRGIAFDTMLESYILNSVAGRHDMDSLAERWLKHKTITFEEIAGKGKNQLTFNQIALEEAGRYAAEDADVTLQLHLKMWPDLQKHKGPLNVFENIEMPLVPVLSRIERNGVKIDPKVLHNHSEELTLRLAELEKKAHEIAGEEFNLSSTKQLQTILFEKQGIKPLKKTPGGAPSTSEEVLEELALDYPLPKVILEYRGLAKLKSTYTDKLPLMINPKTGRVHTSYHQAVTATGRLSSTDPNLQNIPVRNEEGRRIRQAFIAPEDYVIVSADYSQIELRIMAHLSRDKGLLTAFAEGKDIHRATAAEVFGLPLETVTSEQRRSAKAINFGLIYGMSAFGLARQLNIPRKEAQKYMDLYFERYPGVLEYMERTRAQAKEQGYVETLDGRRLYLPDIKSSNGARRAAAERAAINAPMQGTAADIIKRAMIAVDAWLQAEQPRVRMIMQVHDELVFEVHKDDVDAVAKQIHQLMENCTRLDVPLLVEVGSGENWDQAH

Row | Compound | polymerase stop at adduct (primer extension) (E. Coli DNA Polymerase) | polymerase stop at adduct (primer extension) (Klenow Polmerase) | polymerase stop at adduct (primer extension) (Reverse Transcriptase) | polymerase stop at adduct (primer extension) (T4 Polymerase)
1 | 4'-Aminomethyl-4,5'-dimethylisopsoralen [AMDMIP] | complete stop | complete stop | complete stop | complete stop
2 | 5-Aminomethylisopsoralen [AMIP] | not complete stops | not complete stops | complete stops | complete stops
3 | Cc1cc2occc2c2oc(=O)ccc12 [MIP, 5-Methylisopsoralen] | not complete stops | not complete stops | complete stops | complete stops
